In US11370774B2, “Substituted benzofuran, benzopyrrole, benzothiophene, and structurally related complement inhibitors” (BioCryst Pharmaceuticals, Inc., priority 2018, dated 2022) one finds IC50 data, which are given here for 34 compounds.

For orientation: IC50 means the concentration that gives 50% inhibition.

The structures appear in SMILES notation.

Sequence of Factor D (P00746 26-253): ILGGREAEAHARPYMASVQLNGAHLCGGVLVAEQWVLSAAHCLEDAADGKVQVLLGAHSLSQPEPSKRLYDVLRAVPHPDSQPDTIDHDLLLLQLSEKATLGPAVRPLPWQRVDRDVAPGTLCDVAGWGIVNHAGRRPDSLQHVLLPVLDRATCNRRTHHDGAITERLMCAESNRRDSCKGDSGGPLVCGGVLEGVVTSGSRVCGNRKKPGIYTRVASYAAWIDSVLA

This assay has as its target Factor D (Homo sapiens (Human), UniProt P00746). Kind of assay: Factor D esterolytic assay (Z-Lys-SBzl substrate, DTNB, 405 nm). The format is biochemical. Particulars: Z-Lys-SBzl 1.29 mM, pH 7.5, 10% DMSO, tested a minimum of three times, read-out: Measured Ki (IC50) Value for Compounds: IC50. The procedure, abridged:
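Thioester hydrolysis (Z-Lys-SBzl, 1.29 mM) by human Factor D ([…]) detected through DTNB color at 405 nm over 600 sec, minus 690 nm background. Buffer: 100 mM HEPES pH 7.5, 500 mM NaCl, 10% DMSO; optional room-temperature preincubation before substrate. IC50 derived from percent rate inhibition; at least three runs.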
As to `CC(=O)c1cc2cc(COc3ccccc3CC(=O)O)cc(-c3cccc(CN)c3)c2o1` [Compound 252d, 2-(2-((2-acetyl-7-(3-(aminomethyl)phenyl)benzofuran-5-yl)methoxy)phenyl)acetic acid], the IC50 is under 1000 nM. Take `NCc1cccc(-c2cc(COc3ccccc3C(NC(=O)CCc3ccccc3)C(=O)O)cc3ccoc23)c1` (stereo not shown) [Compound 253f, 2-(2-((7-(3-(aminomethyl)phenyl)benzofuran-5-yl)methoxy)phenyl)-2-(3-phenylpropanamido)acetic acid]: the IC50 is under 1000 nM. For the compound `NCc1cccc(-c2cc(COc3ccc(CO)cc3CC(=O)O)cc3ccoc23)c1` [Compound 254c, 2-(2-((7-(3-(aminomethyl)phenyl)benzofuran-5-yl)methoxy)-5-(hydroxymethyl)phenyl)acetic acid], the IC50 was under 1000 nM. Consider `NCc1cccc(-c2cc(C(=O)Nc3ccccc3CC(=O)O)nc3ccoc23)c1` [Compound 255c, 2-(2-(7-(3-(aminomethyl)phenyl)furo[3,2-b]pyridine-5-carboxamido)phenyl)acetic acid], for which the IC50 lay in the range of 1000 to 10000 nM. In the case of `NCc1cc(F)cc(-c2cc(COc3ccccc3CC(=O)O)cc3ccoc23)c1F` [Compound 256c, 2-(2-((7-(3-(aminomethyl)-2,5-difluorophenyl)benzofuran-5-yl)methoxy)phenyl)acetic acid], the IC50 was under 1000 nM. `Cc1cc2cc(COc3cc(CN)ccc3CC(=O)O)cc(-c3cccc(CN)c3)c2o1` [Compound 257k, 2-(4-(aminomethyl)-2-((7-(3-(aminomethyl)phenyl)-2-methylbenzofuran-5-yl)methoxy)phenyl)acetic acid]: the IC50 is under 1000 nM. Consider `NCc1cccc(-c2cc(COc3cc(F)ccc3CC(=O)O)cc3ccoc23)c1` [Compound 260g, 2-(2-((7-(3-(aminomethyl)phenyl)benzofuran-5-yl)methoxy)-4-fluorophenyl)acetic acid], for which the IC50 was under 1000 nM. For `NCc1cccc(-c2cc(COc3cc(CC4CC4)ccc3CC(=O)O)cc3ccoc23)c1` [Compound 261c, 2-(2-((7-(3-(aminomethyl)phenyl)benzofuran-5-yl)methoxy)-4-(cyclopropylmethyl)phenyl)acetic acid], the 50% inhibitory concentration (IC50) was under 1000 nM. Take `CC(=O)c1ccc(CC(=O)O)c(OCc2cc(-c3cccc(CN)c3)c3occc3c2)c1` [Compound 262c, 2-(4-acetyl-2-((7-(3-(aminomethyl)phenyl)benzofuran-5-yl)methoxy)phenyl)acetic acid]: the 50% inhibitory concentration (IC50) is under 1000 nM.

Take `NCc1cccc(-c2cc(COc3cc(-c4ccccc4)ccc3CC(=O)O)cc3ccoc23)c1` [Compound 263c, 2-(3-((7-(3-(aminomethyl)phenyl)benzofuran-5-yl)methoxy)-[1,1′-biphenyl]-4-yl)acetic acid]: the IC50 was under 1000 nM. Consider `NCc1cccc(-c2cc(COc3c(F)cccc3CC(=O)O)cc3ccoc23)c1` [Compound 264c, 2-(2-((7-(3-(aminomethyl)phenyl)benzofuran-5-yl)methoxy)-3-fluorophenyl)acetic acid], for which the IC50 was under 1000 nM. In the case of `CCOc1ccc(CC(=O)O)c(OCc2cc(-c3cccc(CN)c3)c3occc3c2)c1` [Compound 265g, 2-(2-((7-(3-(aminomethyl)phenyl)benzofuran-5-yl)methoxy)-4-ethoxyphenyl)acetic acid], the IC50 was under 1000 nM. In the case of `CCCc1ccc(CC(=O)O)c(OCc2cc(-c3cccc(CN)c3)c3occc3c2)c1` [Compound 266g, 2-(2-((7-(3-(aminomethyl)phenyl)benzofuran-5-yl)methoxy)-4-propylphenyl)acetic acid], the concentration for half-maximal inhibition (IC50) is under 1000 nM.

With `Cc1noc2c(-c3cccc(CN)c3F)cc(COc3ccccc3CC(=O)O)cc12` [Compound 267h, 2-(2-((7-(3-(aminomethyl)-2-fluorophenyl)-3-methylbenzo[d]isoxazol-5-yl)methoxy)phenyl)acetic acid], the concentration for half-maximal inhibition (IC50) was under 1000 nM.

On to `Cc1noc2c(-c3ccnc(CN)c3)cc(COc3ccccc3CC(=O)O)cc12` [Compound 268h, 2-(2-((7-(2-(aminomethyl)pyridin-4-yl)-3-methylbenzo[d]isoxazol-5-yl)methoxy)phenyl)acetic acid], for which the half-inhibitory concentration (IC50) was under 1000 nM. In the case of `Cc1ccc(CC(=O)O)c(OCc2cc(-c3cccc(CN)c3F)c3occc3c2)c1` [Compound 270c, 2-(2-((7-(3-(aminomethyl)-2-fluorophenyl)benzofuran-5-yl)methoxy)-4-methylphenyl)acetic acid], the concentration for half-maximal inhibition (IC50) is under 1000 nM. With `Cc1ccc(CC(=O)O)c(OCc2cc(-c3ccnc(CN)c3)c3occc3c2)c1` [Compound 271e, 2-(2-((7-(2-(aminomethyl)pyridin-4-yl)benzofuran-5-yl)methoxy)-4-methylphenyl)acetic acid], the concentration for half-maximal inhibition (IC50) was under 1000 nM. As to `Cc1ccc(CC(=O)O)c(OCc2cc(-c3ccnc(CN)c3F)c3occc3c2)c1` [Compound 272e, 2-(2-((7-(2-(aminomethyl)-3-fluoropyridin-4-yl)benzofuran-5-yl)methoxy)-4-methylphenyl)acetic acid], the IC50 was under 1000 nM. Consider `NCc1cccc(-c2cc(CC(=O)N3[C@@H]4C[C@@H]4C[C@H]3C(=O)NCc3cccc(Cl)c3F)cc3ccoc23)c1` [Compound 273g, (1R,3S,5R)-2-(2-(7-(3-(aminomethyl)phenyl)benzofuran-5-yl)acetyl)-N-(3-chloro-2-fluorobenzyl)-2-azabicyclo[3.1.0]hexane-3-carboxamide], for which the 50% inhibitory concentration (IC50) was under 1000 nM.

As to `Cc1cccc(CC(=O)O)c1OCc1cc(-c2cccc(CN)c2)c2occc2c1` [Compound 274g, 2-(2-((7-(3-(aminomethyl)phenyl)benzofuran-5-yl)methoxy)-3-methylphenyl)acetic acid], the half-inhibitory concentration (IC50) is under 1000 nM. For `NCc1ccc(-c2cc(CC(=O)N3[C@@H]4C[C@@H]4C[C@H]3C(=O)NCc3cccc(Cl)c3F)cc3ccoc23)cc1` [Compound 275e, (1R,3S,5R)-2-(2-(7-(4-(aminomethyl)phenyl)benzofuran-5-yl)acetyl)-N-(3-chloro-2-fluorobenzyl)-2-azabicyclo[3.1.0]hexane-3-carboxamide], the 50% inhibitory concentration (IC50) was in the range of 1000 to 10000 nM. Take `Cc1cc(CC(=O)O)c(OCc2cc(-c3cccc(CN)c3)c3occc3c2)cc1C` [Compound 276f, 2-(2-((7-(3-(aminomethyl)phenyl)benzofuran-5-yl)methoxy)-4,5-dimethylphenyl)acetic acid]: the IC50 was under 1000 nM. `NCc1cccc(-c2cc(CC(=O)N3CCC[C@H]3C(=O)NCc3cccc(Cl)c3F)cc3ccoc23)c1` [Compound 277e, (S)-1-(2-(7-(3-(aminomethyl)phenyl)benzofuran-5-yl)acetyl)-N-(3-chloro-2-fluorobenzyl)pyrrolidine-2-carboxamide]: the half-inhibitory concentration (IC50) is under 1000 nM. Turning to `COc1cncc(NCc2cc3cc(COc4ccccc4CC(=O)O)cc(-c4cccc(CN)c4)c3o2)c1` [Compound 279c, 2-(2-((7-(3-(aminomethyl)phenyl)-2-(((5-methoxypyridin-3-yl)amino)methyl)benzofuran-5-yl)methoxy)phenyl)acetic acid], the IC50 was under 1000 nM. In the case of `COc1ccc(NCc2cc3cc(COc4ccccc4CC(=O)O)cc(-c4cccc(CN)c4)c3o2)cc1` [Compound 280c, 2-(2-((7-(3-(aminomethyl)phenyl)-2-(((4-methoxyphenyl)amino)methyl)benzofuran-5-yl)methoxy)phenyl)acetic acid] it was under 1000 nM. Regarding `NCc1cccc(-c2cc(COc3ccccc3CC(=O)O)cc3cc(CNCc4cccnc4)oc23)c1` [Compound 281c, 2-(2-((7-(3-(aminomethyl)phenyl)-2-(((pyridin-3-ylmethyl)amino)methyl)benzofuran-5-yl)methoxy)phenyl)acetic acid], the IC50 is under 1000 nM. Take `NCc1cccc(-c2cc(COc3cccc(C(F)(F)F)c3CC(=O)O)cc3ccoc23)c1` [Compound 282f, 2-(2-((7-(3-(aminomethyl)phenyl)benzofuran-5-yl)methoxy)-6-(trifluoromethyl)phenyl)acetic acid]: the IC50 is under 1000 nM. Consider `NCc1cccc(-c2cc(COc3ccccc3CC(=O)O)cc3cc(CNCc4ccccc4)oc23)c1` [Compound 283c, 2-(2-((7-(3-(aminomethyl)phenyl)-2-((benzylamino)methyl)benzofuran-5-yl)methoxy)phenyl)acetic acid], for which the concentration for half-maximal inhibition (IC50) is under 1000 nM. For `NCc1cccc(-c2cc(COc3ccccc3CC(=O)O)cc3cc(COCc4ccccc4)oc23)c1` [Compound 284f, 2-(2-((7-(3-(aminomethyl)phenyl)-2-((benzyloxy)methyl)benzofuran-5-yl)methoxy)phenyl)acetic acid], the concentration for half-maximal inhibition (IC50) was under 1000 nM.

As to `NCc1cccc(-c2cc(COc3ccccc3CC(=O)O)cc3cccnc23)c1` [Compound 285e, 2-(2-((8-(3-(aminomethyl)phenyl)quinolin-6-yl)methoxy)phenyl)acetic acid], the half-inhibitory concentration (IC50) is under 1000 nM.

For `Cc1cc(CC(=O)O)c(OCc2cc(-c3cccc(CN)c3)c3occc3c2)c2c1CCC2` [Compound 286g, 2-(4-((7-(3-(aminomethyl)phenyl)benzofuran-5-yl)methoxy)-7-methyl-2,3-dihydro-1H-inden-5-yl)acetic acid], the 50% inhibitory concentration (IC50) is under 1000 nM. For the compound `CN(Cc1ccccc1)Cc1cc2cc(COc3ccccc3CC(=O)O)cc(-c3cccc(CN)c3)c2o1` [Compound 287c, 2-(2-((7-(3-(aminomethyl)phenyl)-2-((benzyl(methyl)amino)methyl)benzofuran-5-yl)methoxy)phenyl)acetic acid], the IC50 is under 1000 nM.

Consider `NCc1cccc(-c2cc(COc3cc(C(F)(F)F)ccc3CC(=O)O)cc3ccoc23)c1` [Compound 288f, 2-(2-((7-(3-(aminomethyl)phenyl)benzofuran-5-yl)methoxy)-4-(trifluoromethyl)phenyl)acetic acid], for which the half-maximal inhibitory concentration (IC50) is under 1000 nM. Consider `CNC(=O)c1cc2cc(COc3ccccc3CC(=O)O)cc(-c3cccc(CN)c3)c2o1` [Compound 289d, 2-(2-((7-(3-(aminomethyl)phenyl)-2-(methylcarbamoyl)benzofuran-5-yl)methoxy)phenyl)acetic acid], for which the IC50 is under 1000 nM.
